According to ChEMBL document CHEMBL4364308, “Design, synthesis, in-silico and biological evaluation of novel chalcone derivatives as multi-function agents for the treatment of Alzheimer's disease” (Eur J Med Chem, 2019):
Activity calls are given as the source filed them. The rule behind the calls is not given here.

Tests used:
[1] = molecular target: Cholinesterase (Equus caballus) (UniProt P81908); assay: Reversible inhibition of equine serum BuChE assessed as enzyme activity at 0.1xIC50 using butyrylthiocholine iodide as substrate measured after dilution by Ellman's method relative to control; design: scale not given: the % may be the effect or the level left
[2] = molecular target: Cholinesterase (Equus caballus) (UniProt P81908); assay: Reversible inhibition of equine serum BuChE assessed as enzyme activity at 0.1xIC50 using butyrylthiocholine iodide as substrate measured at 240 mins after dilution by Ellman's method relative to control; design: scale not given: the % may be the effect or the level left
[3] = molecular target: Cholinesterase (Equus caballus) (UniProt P81908); assay: Reversible inhibition of equine serum BuChE assessed as enzyme activity at 1xIC50 using butyrylthiocholine iodide as substrate measured after dilution by Ellman's method relative to control; design: scale not given: the % may be the effect or the level left
[4] = molecular target: T1, Amine oxidase [flavin-containing] B (Homo sapiens, UniProt P27338); assay: Inhibition of recombinant human MAO-B expressed in baculovirus infected BTI insect cells using kynuramine as substrate incubated for 30 mins by fluorescence based assay; assay type: cell-based
T1 sequence (P27338 whole entry): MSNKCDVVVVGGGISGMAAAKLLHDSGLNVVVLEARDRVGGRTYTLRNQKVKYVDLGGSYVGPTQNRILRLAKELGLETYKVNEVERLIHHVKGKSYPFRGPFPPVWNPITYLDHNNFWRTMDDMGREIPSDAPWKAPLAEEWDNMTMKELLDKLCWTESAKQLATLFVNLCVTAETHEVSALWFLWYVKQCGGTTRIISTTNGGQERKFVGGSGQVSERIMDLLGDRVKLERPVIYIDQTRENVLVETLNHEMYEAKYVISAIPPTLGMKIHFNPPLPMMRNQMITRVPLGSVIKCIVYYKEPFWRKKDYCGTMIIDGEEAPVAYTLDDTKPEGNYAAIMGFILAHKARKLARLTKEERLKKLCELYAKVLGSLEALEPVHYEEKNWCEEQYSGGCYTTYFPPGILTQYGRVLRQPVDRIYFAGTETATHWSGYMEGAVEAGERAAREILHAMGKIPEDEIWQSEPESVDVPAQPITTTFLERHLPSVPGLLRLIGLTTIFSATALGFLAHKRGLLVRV

[5] = Selectivity index, ratio of IC50 for electric eel AChE to IC50 for equine serum BuChE
Cholinesterase = Cholinesterase (Equus caballus, UniProt P81908); assay: Inhibition of equine serum BuChE using butyrylthiocholine iodide as substrate incubated for 15 mins by Ellman's method
[6] = Permeability of compound at 100 ug/ml measured after dilution with PBS/EtOH (70:30) at pH 7.4 after 18 hrs by PAMPA-BBB assay
[7] = molecular target: T2, Amine oxidase [flavin-containing] A (Homo sapiens, UniProt P21397); assay: Inhibition of recombinant human MAO-A expressed in baculovirus infected BTI insect cells at 10 uM incubated for 30 mins using kynuramine as substrate by fluorescence based assay relative to control; conditions: 0.5 h
T2 sequence (P21397 whole entry): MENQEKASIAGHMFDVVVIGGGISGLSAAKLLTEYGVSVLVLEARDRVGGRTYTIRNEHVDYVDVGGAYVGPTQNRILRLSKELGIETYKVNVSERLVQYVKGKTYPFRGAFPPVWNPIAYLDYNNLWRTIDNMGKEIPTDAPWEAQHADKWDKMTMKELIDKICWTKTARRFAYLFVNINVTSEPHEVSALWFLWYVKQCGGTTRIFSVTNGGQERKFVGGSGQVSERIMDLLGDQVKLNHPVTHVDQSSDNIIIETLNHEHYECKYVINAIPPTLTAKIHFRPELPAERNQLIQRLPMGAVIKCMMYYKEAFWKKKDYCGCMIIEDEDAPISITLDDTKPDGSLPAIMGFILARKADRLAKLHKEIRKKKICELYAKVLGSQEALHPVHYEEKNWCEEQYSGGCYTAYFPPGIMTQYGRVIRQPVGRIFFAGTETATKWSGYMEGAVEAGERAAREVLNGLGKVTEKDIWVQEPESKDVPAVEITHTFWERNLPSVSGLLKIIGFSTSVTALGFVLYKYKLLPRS

Acetylcholinesterase = Acetylcholinesterase (Electrophorus electricus, UniProt O42275); assay: Inhibition of electric eel AChE using acetylthiocholine iodide as substrate incubated for 15 mins by Ellman's method; assay type: ADME
[8] = Antioxidant activity assessed as AAPH radical scavenging activity preincubated for 15 mins followed by AAPH addition measured every min for 90 mins by ORAC-FL assay relative to trolox; assay type: functional
[9] = Disaggregation of Cu2+ induced preformed fibrils of amyloid beta (1 to 42) (unknown origin) at 25 uM after 24 hrs by transmission electron microscopy relative to control
[10] = Inhibition of Cu2+ induced human amyloid beta (1 to 42) aggregation at 25 uM after 24 hrs by thioflavin-T fluorescence assay relative to control
[11] = molecular target: Amyloid-beta precursor protein (Homo sapiens) (UniProt P05067); assay: Inhibition of self-induced aggregation of amyloid beta (1 to 42) (unknown origin) at 25 uM incubated for 24 hrs by thioflavin-T fluorescence assay relative to control
Homo sapiens = organism: Homo sapiens; assay: Selectivity index, ratio of IC50 for recombinant human MAO-A expressed in baculovirus infected BTI insect cells to IC50 for recombinant human MAO-B expressed in baculovirus infected BTI insect cells
[12] = molecular target: T2, Amine oxidase [flavin-containing] A; assay: Inhibition of recombinant human MAO-A expressed in baculovirus infected BTI insect cells using kynuramine as substrate incubated for 30 mins by fluorescence based assay
[13] = Metal chelating activity assessed as compound-Zn2+ complex formation assessed as effect on maximum absorption shift at 37.5 uM after 30 mins by UV-visible spectrometry method
[14] = Metal chelating activity assessed as compound-Cu+ complex formation assessed as effect on maximum absorption shift at 37.5 uM after 30 mins by UV-visible spectrometry method
[15] = Metal chelating activity assessed as compound-Cu2+ complex formation by measuring shift in maximum absorption from 361 nm to 418 nm at 37.5 uM after 30 mins by UV-visible spectrometry method
[16] = Acute toxicity in Kunming mouse assessed as mortality at 250 to 1000 mg/kg, po measured for first 4 hrs through 14 days; assay type: organism-based; conditions: in vivo
PC-12 [17] = assay: Neuroprotective activity against H2O2-induced cell death in rat PC12 cells assessed as cell viability at 10 uM preincubated for 24 hrs followed by H2O2 stimulation for 2 hrs followed by replacement of fresh medium and measured after 24 hrs by MTT assay (reference value: 51.3%); assay type: functional; conditions: read-out: Activity
[18] = Acute toxicity in Kunming mouse assessed as abnormal behaviour at 250 to 1000 mg/kg, po measured for first 4 hrs through 14 days; assay type: organism-based; conditions: in vivo
PC-12 [19] = assay: Neuroprotective activity against H2O2-induced cell death in rat PC12 cells assessed as cell viability at 1 uM preincubated for 24 hrs followed by H2O2 stimulation for 2 hrs followed by replacement of fresh medium and measured after 24 hrs by MTT assay (reference value: 51.3%); assay type: functional; conditions: read-out: Activity
PC-12 [20] = assay: Neuroprotective activity against H2O2-induced cell death in rat PC12 cells assessed as increase in cell viability preincubated for 24 hrs followed by H2O2 stimulation for 2 hrs followed by replacement of fresh medium and measured after 24 hrs by MTT assay; assay type: functional, cell-based
[21] = Metal chelating activity assessed as compound-Al3+ complex formation by measuring shift in maximum absorption from 361 nm to 426 nm at 37.5 uM after 30 mins by UV-visible spectrometry method
[22] = Metal chelating activity assessed as compound-Fe3+ complex formation assessed as effect on maximum absorption shift at 37.5 uM after 30 mins by UV-visible spectrometry method
Mus musculus [23] = assay: Antialzheimer activity in scopolamine-induced memory impairment Kunming mouse model assessed as latency time at 16.8 mg/kg po treated with compound 1 hr before training trial followed by 30 mins later administration with scopolamine and measured 24 hrs after training trial by step-down passive avoidance test (reference value: 70.4 secs); assay type: functional
[24] = Metal chelating activity assessed as compound-Fe2+ complex formation assessed as effect on maximum absorption shift at 37.5 uM after 30 mins by UV-visible spectrometry method
Mus musculus [25] = assay: Antialzheimer activity in po dosed scopolamine-induced memory impairment Kunming mouse model assessed as increase in latency time treated with compound 1 hr before training trial followed by 30 mins later administration with scopolamine and measured 24 hrs after training trial by step-down passive avoidance test; assay type: functional, organism-based
PC-12 [26] = assay: Cytotoxicity against rat PC12 cells assessed as cell viability at 0.1 to 100 uM incubated for 24 hrs by MTT assay; assay type: cell-based; conditions: pc-12, 24 h

Chain of Acetylcholinesterase (O42275 whole entry): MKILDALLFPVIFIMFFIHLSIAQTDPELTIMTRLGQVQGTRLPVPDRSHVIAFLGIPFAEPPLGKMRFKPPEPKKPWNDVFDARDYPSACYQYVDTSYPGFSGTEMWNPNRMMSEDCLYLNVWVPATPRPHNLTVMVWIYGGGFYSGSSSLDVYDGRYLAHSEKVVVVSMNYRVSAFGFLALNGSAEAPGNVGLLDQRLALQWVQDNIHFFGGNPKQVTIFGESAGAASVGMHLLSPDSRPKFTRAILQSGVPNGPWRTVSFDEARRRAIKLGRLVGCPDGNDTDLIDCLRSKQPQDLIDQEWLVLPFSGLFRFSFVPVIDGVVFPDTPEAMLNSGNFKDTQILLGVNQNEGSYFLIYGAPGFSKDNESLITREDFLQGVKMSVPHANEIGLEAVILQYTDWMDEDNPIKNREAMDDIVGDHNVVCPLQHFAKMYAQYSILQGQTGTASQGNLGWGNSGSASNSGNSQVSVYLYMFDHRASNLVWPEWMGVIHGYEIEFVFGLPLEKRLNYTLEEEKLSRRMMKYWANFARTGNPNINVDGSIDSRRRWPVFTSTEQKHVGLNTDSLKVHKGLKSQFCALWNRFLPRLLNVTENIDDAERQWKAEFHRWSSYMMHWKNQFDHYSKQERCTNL
Chain of Cholinesterase (Equus caballus) (P81908 whole entry): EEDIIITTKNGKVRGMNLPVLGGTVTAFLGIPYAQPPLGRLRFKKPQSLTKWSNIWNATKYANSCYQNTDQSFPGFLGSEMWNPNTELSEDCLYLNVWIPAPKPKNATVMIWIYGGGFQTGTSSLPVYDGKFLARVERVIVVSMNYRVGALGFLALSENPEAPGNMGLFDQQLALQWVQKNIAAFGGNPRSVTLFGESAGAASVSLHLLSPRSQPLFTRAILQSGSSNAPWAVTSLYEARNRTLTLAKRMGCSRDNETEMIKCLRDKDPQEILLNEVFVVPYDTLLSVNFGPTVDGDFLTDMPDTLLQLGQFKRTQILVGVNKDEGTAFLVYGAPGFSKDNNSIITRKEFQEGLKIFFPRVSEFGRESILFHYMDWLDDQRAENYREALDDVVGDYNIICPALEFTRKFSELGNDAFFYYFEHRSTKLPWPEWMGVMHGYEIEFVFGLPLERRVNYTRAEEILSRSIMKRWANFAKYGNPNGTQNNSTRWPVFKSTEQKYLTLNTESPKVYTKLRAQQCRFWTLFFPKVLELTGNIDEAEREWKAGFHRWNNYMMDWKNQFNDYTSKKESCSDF
Chain of Cholinesterase (P81908 whole entry): as above
Chain of Amyloid-beta precursor protein (Homo sapiens) (P05067 whole entry): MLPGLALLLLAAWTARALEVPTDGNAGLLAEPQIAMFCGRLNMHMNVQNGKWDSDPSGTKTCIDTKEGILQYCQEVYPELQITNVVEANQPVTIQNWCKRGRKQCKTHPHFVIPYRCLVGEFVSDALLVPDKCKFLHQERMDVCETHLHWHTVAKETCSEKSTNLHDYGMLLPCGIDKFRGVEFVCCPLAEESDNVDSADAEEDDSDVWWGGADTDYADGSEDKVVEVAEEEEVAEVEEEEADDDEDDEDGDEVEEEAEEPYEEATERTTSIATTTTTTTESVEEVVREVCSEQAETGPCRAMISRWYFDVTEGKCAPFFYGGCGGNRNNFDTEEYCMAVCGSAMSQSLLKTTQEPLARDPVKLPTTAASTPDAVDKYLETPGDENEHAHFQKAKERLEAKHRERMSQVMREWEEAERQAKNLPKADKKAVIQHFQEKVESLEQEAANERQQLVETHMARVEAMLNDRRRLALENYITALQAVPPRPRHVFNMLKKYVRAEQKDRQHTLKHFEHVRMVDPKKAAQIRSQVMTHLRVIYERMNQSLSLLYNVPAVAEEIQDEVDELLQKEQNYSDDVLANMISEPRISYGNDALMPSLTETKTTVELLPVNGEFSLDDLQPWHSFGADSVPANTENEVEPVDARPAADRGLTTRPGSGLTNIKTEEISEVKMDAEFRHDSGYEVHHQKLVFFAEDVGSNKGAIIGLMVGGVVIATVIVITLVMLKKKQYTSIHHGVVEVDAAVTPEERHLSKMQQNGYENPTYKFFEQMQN

Row | SMILES | IC50 [4] | Ratio IC50 [5] | IC50 (Cholinesterase) | Papp at 18 h, 100 ug/ml [6] | inhibition at 10 µM [7] | IC50 (Acetylcholinesterase) | Activity [8] | inhibition [11] | Ratio IC50 (Homo sapiens) | IC50 [12] | other results
1 | COc1cc2c(cc1OC)C(=O)C(CC1CCN(Cc3ccccc3)CC1)C2 (centres undefined) |  |  |  |  |  |  |  |  |  |  | Activity [1]: 60.5%; Activity [2]: 127%; Activity [3]: 50.9%
2 | O=C(CCc1cccc(OCCCCN2CCc3ccccc3C2)c1)c1ccccc1O | 26.7 µM | 36 | 0.64 µM | 16.8 ×10⁻⁶ cm/s | < 5% | 23.1 µM | 1.4 µMequiv/µM |  |  |  | 
3 | COc1cc(/C=C/C(=O)CC(=O)/C=C/c2ccc(O)c(OC)c2)ccc1O |  |  |  |  |  |  |  |  |  |  | inhibition [9]: 56.5%; inhibition [10]: 76.5%
4 | O=C(/C=C/c1ccc(F)cc1)c1ccc(OCCCN2CCc3ccccc3C2)cc1O | 12.6 µM | 1.7 | 13.4 µM | 12.6 ×10⁻⁶ cm/s |  | 22.3 µM | 0.92 µMequiv/µM | 72.4% | 2.1 | 26.1 µM | 
5 | CN(C)c1ccc(/C=C/C(=O)c2ccc(OCCCCCCN3CCc4ccccc4C3)cc2O)cc1 | 7.1 µM | 0.6 | 10.4 µM | 13.2 ×10⁻⁶ cm/s | < 5% | 6.6 µM | 1.6 µMequiv/µM | 97.5% |  |  | 
6 | O=C(/C=C/c1cccc(OCCCCN2CCC(Cc3ccccc3)CC2)c1)c1ccccc1O | 6.4 µM | 3.1 | 4.9 µM | 12.3 ×10⁻⁶ cm/s | < 5% | 15.3 µM | 1.2 µMequiv/µM | 71.4% |  |  | 
7 | O=C(/C=C/c1cccc(OCCCCN2CCc3ccccc3C2)c1)c1ccccc1O | 5.3 µM | 6.2 | 2.6 µM | 11.3 ×10⁻⁶ cm/s | < 5% | 16.2 µM | 1.2 µMequiv/µM | 70.2% |  |  | Activity [13]: inactive; Activity [14]: inactive; Activity [15]: Active; Activity [16]: Non-Toxic; Activity [1]: 60.8%; viability at 10 µM (PC-12 [17]): 82.6%; Activity [18]: Non-Toxic; viability at 1 µM (PC-12 [19]): 61.9%; Activity [2]: 104%; Activity (PC-12 [20]): Dose-dependent effect; inhibition [9]: 73.5%; Activity [21]: Active; Activity [22]: inactive; Time (Mus musculus [23]): 126.4 s; inhibition [10]: 80.7%; Activity [24]: inactive; Activity [3]: 52.6%; Activity (Mus musculus [25]): Dose-dependent effect; Activity (PC-12 [26]): Non-Toxic
8 | COc1ccccc1/C=C/C(=O)c1ccc(OCCCCN2CCc3ccccc3C2)cc1O | 9.5 µM | 1.6 | 5.2 µM | 13.1 ×10⁻⁶ cm/s |  | 8.3 µM | 1.5 µMequiv/µM | 83.1% | 2.4 | 30.1 µM | 
9 | O=C(/C=C/c1cccc(OCCCN2CCc3ccccc3C2)c1)c1ccccc1O | 10.7 µM | 1.6 | 11.2 µM | 10.2 ×10⁻⁶ cm/s |  | 17.6 µM | 1.1 µMequiv/µM | 65.9% | 2.8 | 29.8 µM | 
10 | O=C(/C=C/c1cccc(OCCCCCN2CCc3ccccc3C2)c1)c1ccccc1O | 4.8 µM | 7.2 | 3.7 µM | 10 ×10⁻⁶ cm/s | < 5% | 18.6 µM | 1.2 µMequiv/µM | 69.7% |  |  | 
11 | O=C(/C=C/c1cccc(OCCCCCCN2CCc3ccccc3C2)c1)c1ccccc1O | 6.7 µM | 6.6 | 4.1 µM | 11.8 ×10⁻⁶ cm/s |  | 27.1 µM | 1.1 µMequiv/µM | 65.6% | 4.7 | 31.5 µM | 
